This note sets out measurements from patent publication US6403626B1, “Benzimidazole derivatives” (Synaptic Pharmaceutical Corporation, priority 1994, dated 2002).

For orientation: EC50 means the concentration needed to bring the measured effect to its halfway point. Low readings indicate greater potency, high ones weaker potency. The melting point is the temperature, or range, at which the solid turns liquid.

Read-outs that look alike come from different tables or passages of the source.

In data set [1] the target is T1, α2B Human Adrenergic Receptor (Homo sapiens, UniProt P18089).
T1 construct: expressed in transfected cells; host or cells: Y-1 cells
T1 sequence (P18089 1-450): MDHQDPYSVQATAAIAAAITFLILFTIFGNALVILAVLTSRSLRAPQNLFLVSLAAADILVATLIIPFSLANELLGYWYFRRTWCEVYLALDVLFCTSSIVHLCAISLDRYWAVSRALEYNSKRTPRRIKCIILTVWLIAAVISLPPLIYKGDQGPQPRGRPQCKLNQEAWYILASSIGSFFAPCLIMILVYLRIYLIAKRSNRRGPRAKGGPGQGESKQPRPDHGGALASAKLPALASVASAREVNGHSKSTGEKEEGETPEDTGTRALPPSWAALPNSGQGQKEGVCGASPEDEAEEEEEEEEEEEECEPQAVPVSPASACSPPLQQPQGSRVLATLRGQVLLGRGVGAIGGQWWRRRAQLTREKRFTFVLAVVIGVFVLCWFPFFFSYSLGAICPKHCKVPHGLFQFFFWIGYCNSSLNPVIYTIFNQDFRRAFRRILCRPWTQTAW
Put plainly: Equilibrium competition binding, [3H] rauwolscine, membranes of transfected Y-1 cells.

Data set [2] concerns the target T2, α1A Human Adrenergic Receptor (Homo sapiens, UniProt P25100).
T2 construct: expressed in transfected cells; host or cells: LM(tk-) cells
T2 sequence (P25100 1-572): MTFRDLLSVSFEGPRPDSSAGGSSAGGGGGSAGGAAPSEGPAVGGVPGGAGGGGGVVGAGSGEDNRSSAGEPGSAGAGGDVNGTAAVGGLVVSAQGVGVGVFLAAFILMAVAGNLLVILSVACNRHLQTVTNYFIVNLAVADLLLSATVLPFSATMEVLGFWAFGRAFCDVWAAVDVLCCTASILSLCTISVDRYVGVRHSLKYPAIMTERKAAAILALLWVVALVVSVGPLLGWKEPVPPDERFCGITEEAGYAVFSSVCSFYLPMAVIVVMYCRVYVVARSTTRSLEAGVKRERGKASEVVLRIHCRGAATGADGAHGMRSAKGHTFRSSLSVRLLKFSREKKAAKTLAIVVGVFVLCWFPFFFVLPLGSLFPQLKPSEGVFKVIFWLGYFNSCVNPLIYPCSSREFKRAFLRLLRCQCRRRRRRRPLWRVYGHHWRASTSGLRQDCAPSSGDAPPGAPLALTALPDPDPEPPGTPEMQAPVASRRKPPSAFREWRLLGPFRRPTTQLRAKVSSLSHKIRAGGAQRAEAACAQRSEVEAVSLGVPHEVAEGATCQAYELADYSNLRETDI
Kind of data set: Equilibrium competition binding, [3H] prazosin, membranes of transfected LM(tk-) cells. The method, then:
(§1) Binding and functional assays were performed using stably transfected human alpha adrenergic receptors. Equilibrium competition binding assays were performed with membrane preparations from cultured LM(tk-) cells stably transfected with the cloned human adrenoceptor subtypes except for α2b, which was expressed in Y-1 cells, using [^3H] prazosin for α1 receptors and [^3H] rauwolscine for α2 receptors.
(§2) Transfected cells from culture flasks were scraped into 5 ml of 5 mM Tris-HCl, 5 mM EDTA, pH 7.5, and lysed by sonication. The cell lysates were centrifuged at 1000 rpm for 5 min at 4° C., and the supernatant was centrifuged at 30,000×g for 20 min at 4° C. The pellet was suspended in 50 mM Tris-HCl, 1 mM MgCl2, and 0.1% ascorbic acid at pH 7.5. Binding of α2 antagonist [^3H] rauwolscine ([…]) to membrane preparations of LM(tk-) cells was done in a final volume of 0.25 ml and incubated at 37° C. for 20 min. Nonspecific binding was determined in the presence of 10 μM phentolamine. The reaction was stopped by filtration through GF/B filters using a cell harvester.
(§3) Stable cell lines were selected as described above.

Data set [3] addresses T3, α2C Human Adrenergic Receptor (Homo sapiens, UniProt P18825).
T3 sequence (P18825 1-462): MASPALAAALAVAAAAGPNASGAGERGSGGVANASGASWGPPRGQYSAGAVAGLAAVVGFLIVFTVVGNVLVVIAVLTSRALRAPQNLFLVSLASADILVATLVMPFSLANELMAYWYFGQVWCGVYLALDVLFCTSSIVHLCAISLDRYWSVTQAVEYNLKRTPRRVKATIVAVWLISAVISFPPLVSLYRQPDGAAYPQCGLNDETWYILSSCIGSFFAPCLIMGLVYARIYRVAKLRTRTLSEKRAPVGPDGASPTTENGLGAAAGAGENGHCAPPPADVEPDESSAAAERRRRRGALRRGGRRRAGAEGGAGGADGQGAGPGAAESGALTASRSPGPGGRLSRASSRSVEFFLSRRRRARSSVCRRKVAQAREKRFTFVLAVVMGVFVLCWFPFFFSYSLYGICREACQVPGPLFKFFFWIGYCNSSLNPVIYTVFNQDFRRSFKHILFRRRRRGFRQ
Put plainly: Equilibrium competition binding, [3H] rauwolscine, membranes of transfected LM(tk-) cells.

Data set [4] deals with T4, α1B Human Adrenergic Receptor (Homo sapiens, UniProt P35368).
T4 construct: The entire coding region of α1B(1563 bp); expressed in transfected cells; host or cells: LM(tk-) cells
T4 sequence (P35368 1-520): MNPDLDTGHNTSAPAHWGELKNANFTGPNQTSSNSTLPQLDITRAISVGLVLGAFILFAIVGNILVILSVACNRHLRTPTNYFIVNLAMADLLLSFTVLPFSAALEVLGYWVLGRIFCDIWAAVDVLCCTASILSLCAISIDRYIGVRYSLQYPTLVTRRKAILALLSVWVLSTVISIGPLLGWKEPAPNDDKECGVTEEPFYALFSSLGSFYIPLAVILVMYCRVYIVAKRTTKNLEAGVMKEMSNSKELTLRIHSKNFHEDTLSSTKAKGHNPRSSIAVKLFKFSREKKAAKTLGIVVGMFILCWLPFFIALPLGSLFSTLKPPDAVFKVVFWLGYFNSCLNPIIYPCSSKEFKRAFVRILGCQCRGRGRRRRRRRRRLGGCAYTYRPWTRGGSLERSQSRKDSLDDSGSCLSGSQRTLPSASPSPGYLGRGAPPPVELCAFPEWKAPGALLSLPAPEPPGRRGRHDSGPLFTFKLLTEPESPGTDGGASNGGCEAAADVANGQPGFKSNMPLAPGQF
Put plainly: Equilibrium competition binding, [3H] prazosin, membranes of transfected LM(tk-) cells. As for the experimental part: as §1, §2
The construct involved ligating the full-length containing EcoRI brainstem cDNA fragment from ZapII into the expression vector. The stable cell lines were selected as described above.

The target in data set [5] is T5, α1C Human Adrenergic Receptor (Homo sapiens, UniProt P35348).
T5 construct: expressed in transfected cells; host or cells: LM(tk-) cells
T5 sequence (P35348 1-466): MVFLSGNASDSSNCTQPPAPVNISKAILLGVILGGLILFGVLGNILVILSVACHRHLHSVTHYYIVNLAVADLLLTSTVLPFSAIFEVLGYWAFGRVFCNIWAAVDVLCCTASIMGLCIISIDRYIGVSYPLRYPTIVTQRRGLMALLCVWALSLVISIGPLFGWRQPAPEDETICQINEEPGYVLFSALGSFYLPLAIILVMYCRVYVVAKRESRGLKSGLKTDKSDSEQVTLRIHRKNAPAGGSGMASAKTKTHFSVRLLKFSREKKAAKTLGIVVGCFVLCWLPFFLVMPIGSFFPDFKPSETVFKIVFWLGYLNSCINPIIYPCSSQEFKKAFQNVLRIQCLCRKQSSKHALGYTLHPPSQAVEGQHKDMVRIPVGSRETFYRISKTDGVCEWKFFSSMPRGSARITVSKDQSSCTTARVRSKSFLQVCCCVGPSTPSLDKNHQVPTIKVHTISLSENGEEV
The description is as above. The method, then:
as §1, §2
The construct involved ligation three partial overlapping fragments: a 5′ 0.6 kb HincII genomic clone, a central 1.8 EcoRI hippocampal cDNA clone, and a 3′ 0.6 Kb PstI genomic clone. The hippocampal cDNA fragment overlaps with the 5′ and 3′ genomic clones so that the HincII and PstI sites at the 5 and 3′ ends of the cDNA clone, respectively, were utilized for ligation. This full-length clone was cloned into the KpnI site of the expression vector, using the 5′ and 3′ KpnI sites of the fragment, derived from vector (i.e., pBluescript) and 3′-untranslated sequences, respectively. Stable cell lines were selected as described above.

The target in data set [6] is T1, α2B Human Adrenergic Receptor. The class given is cell-based. As for the experimental part:
as §1, §3
(§4) The agonist activity (expressed as pEC50) was measured as a function of the ability to inhibit the forskolin-stimulated synthesis of cyclic adenosine monophosphate (cAMP). The stably transfected cells were incubated in Ham's F10 with 5 mM theophylline, 10 mM HEPES, 10 μM pargyline, and/or appropriate concentrations of forskolin for 20 min at 37° C. in 5% CO2. The tested compounds were then added to a final concentration of 0.001 nM to 1 μM and incubated for an additional 15 min at 37° C. in 5% CO2. The medium was aspirated and the reaction was stopped by the addition of 100 mM HCl . […] The plates are stored at 4° C. for 15 min and assayed to determine the linear concentration of cAMP. The appropriate dilution is interpolated from the standard curve of cold cAMP. The assessment of cAMP formation is determined by radioimmunoassay (cAMP radioimmunoassay kit; Advanced Magnetics, Cambridge, Mass.). Radioactivity was quantified using a Packard COBRA Auto Gamma counter, equipped with data reduction software.

Data set [7] has as its target T3, α2C Human Adrenergic Receptor. The class given is cell-based. More on the design: The entire coding region of α2C (1383 bp), including 2 bp of 5′ UT and 400 bp of 3′ UT; expressed in transfected cells; host or cells: LM(tk-) cells. As for the experimental part:
as §1
The insert housing this coding region was an @ 1.8 kb Ncol/EcoRI human spleen genomic fragment which was end-blunted by either T4 polymerase or Klenow fragment of DNA polymerase. Stable cell lines were selected as described above.
as §4

Where [8] appears, read: cloned human receptor, [3H] rauwolscine, read-out: pKi Alpha-2 B (converted).
[9] abbreviates: cloned human receptor, [3H] prazosin, read-out: pKi Alpha-1 B (converted).
The mark [10] stands for this setting: cloned human receptor, [3H] prazosin, read-out: pKi Alpha-1 C (converted).
Setting [11] is: cloned human receptor, [3H] prazosin, read-out: pKi Alpha-1 A (converted).
Where [12] appears, read: cloned human receptor, [3H] rauwolscine.
Setting [13] is: cloned human receptor, [3H] prazosin.

In the case of `CC(C)Cn1cnc2c(Br)c(NC3=NCCN3)ccc21` [Example 23, 1-Isobutyl-4-bromo-5-(2-imidazolin-2-ylamino)Benzimidazole], the Ki was 309 nM in data set [1] (setting [8]); 5010 nM in data set [2]; 229 nM in data set [3]; 38000 nM in data set [4] (setting [9]); 380 nM in data set [5] (setting [10]).
For `NCCn1cnc2c(Br)c(NC3=NCCN3)ccc21` [Example 40, 1-(2-Aminoethyl)-4-bromo-5-(2-imidazolin-2-ylamino)Benzimidazole], the Ki in data set [1] (setting [8]) is 955 nM; in data set [2] (setting [11]) it was 9330 nM; in data set [3] it was 2820 nM; in data set [4] (setting [9]) it was 26900 nM; in data set [5] (setting [10]), 9120 nM.
Regarding `Brc1c(NC2=NCCN2)ccc2ncn(Cc3ccccc3)c12` [Example 35, 3-Benzyl-4-bromo-5-(2-imidazolin-2-ylamino)Benzimidazole], the Ki in data set [1] (setting [8]) is 15.8 nM; in data set [2] it was 309 nM; in data set [3], 17 nM; in data set [4], 1950 nM; in data set [5], 794 nM.
With `CCCn1cnc2c(Br)c(NC3=NCCN3)ccc21` [Example 14, 1-Propyl-4-bromo-5-(imidazolin-2-ylamino)Benzimidazole], the “pKi Alpha-2 B” value in data set [1] (setting [12]) was 6.66. Besides, the “pKi Alpha-1 A” value in data set [2] (setting [13]) is recorded as 5.63. In addition, the “pKi Alpha-2 C” value in data set [3] (setting [12]) was 6.64. Besides, the “pKi Alpha-1 B” value in data set [4] (setting [13]) is 4.69. Besides, in data set [5] (setting [13]), the “pKi Alpha-1 C” value was found to be 6.21.
Take `CC(C)n1cnc2ccc(NC3=NCCN3)c(Br)c21` [Example 21, 3-Isopropyl-4-bromo-5-(2-imidazolin-2-ylamino)Benzimidazole]: the Ki in data set [1] (setting [8]) is 21.4 nM; in data set [2], 741 nM; in data set [4] (setting [9]), 4680 nM; in data set [5] (setting [10]), 1200 nM.
The like results for `CCCn1cnc2ccc(NC3=NCCN3)c(Br)c21` [Example 16, 3-Propyl-4-bromo-5-(2-imidazolin-2-ylamino)Benzimidazole] were, in that order, 12.3 nM, 55 nM, 513 nM and 417 nM.
Turning to `Brc1c(NC2=NCCN2)ccc2c1ncn2C1CCCC1` [Example 26, 1-Cyclopentyl-4-bromo-5-(2-imidazolin-2-ylamino)Benzimidazole], the Ki in data set [1] (setting [8]) is 562 nM; in data set [2] (setting [11]) it was 8910 nM; in data set [3], 257 nM; in data set [4] (setting [9]), 57500 nM; in data set [5] (setting [10]), 9550 nM.
Take `Brc1cc(NC2=NCCN2)c(Br)c2[nH]cnc12` [Example 58, 4,7-Dibromo-5-(2-imidazolin-2-ylamino)Benzimidazole]: the melting point fell in the range of 320 to 321 °C. Further, in data set [6], the midpoint of the response, the EC50, lay at 28.2 nM and the “I.A Alpha-2 B” value is given as 0.50. Besides, the Ki in data set [1] was 174 nM. The Ki in data set [3] is 30.9 nM. The same molecule gave an EC50 in data set [7] of 3.24 nM. For the same molecule, the “I.A Alpha-2 C” value in data set [7] (functional cAMP assay) came to 1.00.
In the case of `CC(C)Cn1cnc2ccc(NC3=NCCN3)c(Br)c21` [Example 24, 3-Isobutyl-4-bromo-5-(2-imidazolin-2-ylamino)Benzimidazole], the Ki in data set [1] is 12.9 nM; in data set [2], 309 nM; in data set [4] (setting [9]), 4900 nM; in data set [5] (setting [10]), 251 nM.
